Test results published in patent publication US11246314B2, “Trichome and pistil maturing formulation” (priority 2015, dated 2022).

How the values were obtained:
Type in all cases: in vivo
Settings in all cases: in words
[1] = tested on: trichomes of Cannabis plants; test: Trichome maturation on sprayed Cannabis plants
Text: (§1) Trials were done with sesame oil alone, in place of bud finisher and bud shield embodiments.
(§2) Add all ingredients to a gallon of water 7. Shake or mix well. Pour the final mixture 8 through a double mesh screen 41, into a convenient applicator such as a spray bottle 9 shown in FIG. 6. Apply directly to plants 10 over and under the leaves and flowers and upon the soil. Plant foliage should be sprayed on all surfaces until the solution is dripping off. Spray every 1-7 days as preferred as illustrated in FIG. 7.

[2] = tested on: pistils of Cannabis plants; test: Pistil maturation on sprayed Cannabis plants
Text: as §1, §2

[3] = tested on: powdery mildew; test: Control of powdery mildew, mold and mildew on plants
Text: as §1

Compound: O=C([O-])O.[K+] [Potassium bicarbonate]
- effect on trichome maturation [1]: little to no effect
- effect on pistil maturation [2]: fully matures pistils quickly
- efficacy against powdery mildew / mold and mildew [3]: very effective
